Key:
[1] = in vivo; cited from earlier work
[2] = Time-dependent solubility of hypericin after complexation by PVP (absorption and fluorescence, FIG. 1); format: physicochemical

Cc1cc(O)c2c(=O)c3c(O)cc(O)c4c5c(O)cc(O)c6c(=O)c7c(O)cc(C)c8c1c2c(c34)c(c78)c65 [hypericin]
biological half-life [1]: 34-38 h
solubility state in aqueous environment ([2]; aqueous solution, with or without PVP): forms at once insoluble aggregates
absorption in the relevant spectral region ([2]; aqueous, hypericin+PVP after 30, 60, 180 minutes): no absorption
